In publication PMC9127117, “Towards discovery of inhibitors of the undecaprenyl-pyrophosphate phosphatase BacA by virtual high-throughput screening” (Computational and Structural Biotechnology Journal, 2022):
Entries after “also recorded” stand apart in the source; their conditions may differ.

Experiments:
[1] = test system: BWΔtolC strain; assay: Growth inhibition in 2YT liquid medium (off-target activity); format: cell-based, E. coli; settings: for growth inhibition: TolC-depleted BWΔtolC; for Off-target activity: antibacterial activity against BWΔtolC
Protocol: (§1) Bacteria were grown in 2YT broth supplemented, when required, with ampicillin or kanamycin at concentrations of 100 and 50 µg/ml, respectively. The BWΔtolC strain was obtained from the Keio collection. The BWΔbacAΔtolC and BWbacA-singleΔtolC were generated by P1 transduction of the ΔtolC::Kan^R cassette from BWΔtolC strain to BWΔbacA and DMEG9 recipient strains, respectively. The strains S. aureus RN4220 and S. pneumoniae R6 were used to evaluate the antibacterial activity of certain compounds. S. aureus was grown on BHI (Brain Heart Infusion) broth and S. pneumoniae was grown on Colombia broth supplemented with 5% horse blood.
(§2) For compounds displaying inhibitory activity on BacA catalysis, their antibacterial activity was tested on different E. coli strains by monitoring bacterial growth in the presence of compounds (125, 250 and 500 µM). One colony was cultured in 10 ml of 2YT liquid medium and incubated at 37℃ for 6 h. The absorbance of the culture at 600 nm (A600) was measured to prepare a bacterial suspension in 2YT liquid medium at 15.10^6 CFU/ml (A600 = 1 corresponds to 3.10^8 CFU/ml). The bacterial suspension (200-µl) was then grown on 96-well plates in the presence or not of compounds (5-µl), which was added from a stock solution prepared in DMSO. Negative controls were then performed by growing the cells without inhibitors in 2YT medium and in 2YT medium supplemented with 2.5% of DMSO. The plates were incubated at 37℃ overnight with A600 measurements every 10 min using a Tecan F200 PRO microplate reader (iControl software).

[2] = test system: BWbacA-singleΔtolC strain; assay: Growth inhibition / MIC in 2YT liquid medium; format: cell-based, E. coli; settings: for class of antibacterial activity (Figure S2): BWΔtolC and BWbacA-singleΔtolC strains, 250 and 500 µM; for MIC: BWbacA-singleΔtolC strain; for growth inhibition: TolC/PAP2-depleted BWbacA-singleΔtolC, 500 µM compound
Protocol: as §1, §2

[3] = biological target: BacA (Escherichia coli, UniProt P60932); settings: for IC50 / BacA RA (%): 50 µM C55-PP, 5 nM BacA; for IC50: average of at least three experiments; for BacA RA (%): residual activity in the presence of 100 µM compound, 10 min 37 °C
Sequence of BacA (P60932 whole entry): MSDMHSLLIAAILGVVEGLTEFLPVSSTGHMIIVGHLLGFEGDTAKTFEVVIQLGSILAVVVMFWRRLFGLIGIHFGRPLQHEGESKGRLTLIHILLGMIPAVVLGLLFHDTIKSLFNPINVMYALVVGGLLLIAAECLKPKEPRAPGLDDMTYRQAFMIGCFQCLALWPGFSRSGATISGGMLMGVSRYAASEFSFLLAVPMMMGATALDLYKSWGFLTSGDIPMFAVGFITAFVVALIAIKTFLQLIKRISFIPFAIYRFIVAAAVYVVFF
Protocol: C43(DE3) cells carrying pTrcBac30 plasmid were used for the expression of N-terminally His6-tagged BacA (His6-BacA) protein from E. coli. Cells were grown in 2YT-ampicillin at 37 °C and when the OD600 reached 0.9, the temperature of the culture was decreased to 22 °C and protein expression was induced by addition of 1 mM IPTG. Incubation was continued overnight at 22 °C and bacteria were harvested in the cold and washed in a buffer containing 20 mM Tris-HCl, pH 7.4, 0.4 M NaCl, 10% glycerol and 10 mM β-mercaptoethanol (buffer A). The cells were disrupted by three successive passages through a French press and the suspension was centrifuged at 200,000× g, 4 °C for 45 min. The pellet of membranes was washed with buffer A. The membranes were resuspended in buffer A supplemented by 2% DDM detergent. This mixture was incubated for 2 h at 4 °C under agitation before being centrifuged as described above. The supernatant containing solubilised membrane proteins was used for the purification of His6-BacA on Ni^2+-NTA-agarose. The supernatant was incubated overnight at 4 °C under agitation with 2 ml of Ni^2+-NTA-agarose polymer pre-equilibrated with buffer A supplemented with 10 mM imidazole and 0.2% DDM. The mixture was then transferred into a Poly-prep chromatography column (Biorad) and the polymer was washed with 50 ml of buffer A containing 0.2% DDM and successively 10 and 30 mM imidazole. The elution of BacA was then performed with buffer A containing 0.2% DDM and 400 mM imidazole. Fractions containing the BacA protein were subjected to an additional gel-filtration purification step on Superdex 200 (HiLoadTM 16/600 SuperdexTM 200) equilibrated in 0.1% DDM-containing buffer A. 1-ml fractions were collected and analysed by SDS-PAGE. Pure fractions were pooled and concentrated to 1 mg/ml (50000 MWCO concentrator, Vivaspin™ 20). […] PgpB was purified as previously described.
The C55-PP phosphatase activity of BacA was assessed by measuring the percentage of transformation of [^14C]C55-PP into [^14C]C55-P upon incubation with BacA by TLC analysis. The butanol from the [^14C]C55-PP solution was dried under vacuum so as to evaporate the organic solvent and to recover C55-PP as a lipidic film. […] The compounds (1 µL) were added to the reaction mixture at 100 µM final concentration (at the first instance) from a 2 mM stock solution prepared in DMSO. A blank experiment without compound, but with 1 µL DMSO, was performed in order to determine the 100 % of BacA activity to which all other experiments were compared. BacA (2 µL) was then added at a final concentration of 5 nM from a dilution solution prepared in the reaction buffer. The concentration of enzyme was fixed so that the consumption of substrate at the end of the incubation time in the control was less than 30%. The reaction mixture was incubated for 10 min at 37 °C and the catalysis was stopped by freezing in liquid nitrogen. The radiolabelled substrate (C55-PP) and product (C55-P) were separated by TLC on pre-coated plates of silica gel 60 (Merck) using propanol/ammonium hydroxide/water (6:3:1, v/v/v) as a mobile phase. The radioactive spots were located and quantified with a radioactivity scanner. […] Dose-response curves were plotted as BacA residual activity (RA) versus the logarithms of inhibitor concentration. […] Reported values are the average of at least three experiments. The C55-PP phosphatase activity of PgpB was measured as described for BacA.
The activity of BacA was then investigated by monitoring the initial velocity of [^14C]C55-PP dephosphorylation, as described in Material and methods section. […] The compounds were prepared as 2 mM DMSO stock solutions, resulting in a 5 % final concentration of DMSO in the reaction mixture.

[4] = test system: S. pneumoniae R6; assay: Double-disc diffusion test with bacitracin; format: cell-based
Protocol: To evaluate the antibacterial activity of the compounds per se or in combination with bacitracin, against S. aureus RN4220 and S. pneumoniae R6 strains, disc diffusion method was used according to the CLSI guidelines. Bacterial suspensions equivalent to 10^8 CFU/ml were prepared in 5 ml BHI broth. A BHI-agar plate (for S. aureus) or Colombia-agar plate supplemented with 5% Horse Blood (for S. pneumoniae) were then flooded with a bacterial suspension for 1 min to allow the bacteria to sediment before removing the excess of medium. The commercial discs loaded with 130 µg of bacitracin (Biorad) was positioned on top of the bacterial lawn at distances of 10 mm (center to center) from another sterile and blank disc, which was then loaded with 7 µL of a compound solution (50 µg). The plates were incubated at 37 °C for 24 h and the diameter of the growth inhibition zone was measured and a photo of the plates was acquired using a ChemiDoc™ MP System.
Figure S3. Test of antibacterial activity of BacA inhibitors against S. aureus RN4220 (A) and S. pneumonia R6 (B) strains. Bacitracin (130 µg)- and compound (50 µg)-loaded discs were positioned at 10 mm of distance on top of a bacterial lawn. The plates were incubated overnight at 37 °C. These images are representative of three independent tests. […]

[5] = biological target: T1, PgpB (Escherichia coli, UniProt P0A924); assay: C55-PP phosphatase assay of PgpB; format: biochemical, E. coli; settings: 100 µM compound; data not shown
T1 construct: made in house
T1 sequence (P0A924 whole entry): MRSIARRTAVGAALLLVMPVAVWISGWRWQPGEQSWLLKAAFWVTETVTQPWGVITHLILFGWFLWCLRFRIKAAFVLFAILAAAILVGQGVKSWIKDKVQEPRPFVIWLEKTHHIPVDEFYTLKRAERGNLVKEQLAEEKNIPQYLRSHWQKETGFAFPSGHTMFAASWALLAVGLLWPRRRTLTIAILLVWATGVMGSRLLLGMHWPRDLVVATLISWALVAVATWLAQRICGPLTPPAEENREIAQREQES
Protocol: C43(DE3) cells carrying pTrcBac30 plasmid were used for the expression of N-terminally His6-tagged BacA (His6-BacA) protein from E. coli. Cells were grown in 2YT-ampicillin at 37 °C and when the OD600 reached 0.9, the temperature of the culture was decreased to 22 °C and protein expression was induced by addition of 1 mM IPTG. Incubation was continued overnight at 22 °C and bacteria were harvested in the cold and washed in a buffer containing 20 mM Tris-HCl, pH 7.4, 0.4 M NaCl, 10% glycerol and 10 mM β-mercaptoethanol (buffer A). The cells were disrupted by three successive passages through a French press and the suspension was centrifuged at 200,000× g, 4 °C for 45 min. The pellet of membranes was washed with buffer A. The membranes were resuspended in buffer A supplemented by 2% DDM detergent. […] Fractions containing the BacA protein were subjected to an additional gel-filtration purification step on Superdex 200 (HiLoadTM 16/600 SuperdexTM 200) equilibrated in 0.1% DDM-containing buffer A. 1-ml fractions were collected and analysed by SDS-PAGE. […]
The C55-PP phosphatase activity of BacA was assessed by measuring the percentage of transformation of [^14C]C55-PP into [^14C]C55-P upon incubation with BacA by TLC analysis. […] The radioactive spots were located and quantified with a radioactivity scanner. […] The C55-PP phosphatase activity of PgpB was measured as described for BacA.

[6] = test system: DMEG9 strain, alias BWbacA-single; assay: Growth inhibition in 2YT liquid medium; format: cell-based, E. coli; settings: PAP2-depleted DMEG9; 500 µM compound
Protocol: as §2
(§3) Two compounds, 3 and 5, were assessed for antibacterial activity using the broth microdilution method against the E. coli BW25113 wild type strain. […] Considering the plurality of C55-PP phosphatases in E. coli, the inhibition of BacA may not induce growth inhibition as long as the PAP2 enzymes (PgpB, YbjG, and LpxT) are functional. Consequently, compounds 3 and 5 were tested against a BW25113 variant in which the PAP2 enzymes were depleted (DMEG9 strain, alias BWbacA-single). […]

[7] = test system: BWbacA-singleΔtolC strain overexpressing an ectopic copy of the bacA gene on a plasmid; assay: Growth inhibition upon bacA overexpression; format: cell-based, E. coli; settings: bacA overexpressed in trans; 500 µM compound
Protocol: as §2
(§4) To further assess the specificity of compounds 3 and 5 with respect to BacA, they were tested against the strain depleted of both TolC and PAP2 but overexpressing an ectopic copy of the bacA gene on a plasmid.

[8] = test system: BWbacA-singleΔtolC strain carrying the empty vector (pTRCH30); assay: Growth inhibition, control strain carrying the empty vector; format: cell-based, E. coli; settings: 500 µM compound
Protocol: as §2, §4

[9] = test system: E. coli BW25113 wild type strain; assay: Growth inhibition in 2YT liquid medium; format: cell-based; settings: 500 µM compound
Protocol: as §2, §3

[10] = test system: BWΔbacAΔtolC strain; assay: Growth inhibition in 2YT liquid medium; format: cell-based, E. coli; settings: BacA and TolC depleted; 500 µM compound
Protocol: as §1
For compounds displaying inhibitory activity on BacA catalysis, their antibacterial activity was tested on different E. coli strains by monitoring bacterial growth in the presence of compounds (125, 250 and 500 µM). One colony was cultured in 10 ml of 2YT liquid medium and incubated at 37℃ for 6 h. The absorbance of the culture at 600 nm (A600) was measured to prepare a bacterial suspension in 2YT liquid medium at 15.10^6 CFU/ml (A600 = 1 corresponds to 3.10^8 CFU/ml). […] The plates were incubated at 37℃ overnight with A600 measurements every 10 min using a Tecan F200 PRO microplate reader (iControl software). […]

Compound	growth inhibition ([1]; 500 µM compound)	Off-target activity [1]	class of antibacterial activity (Figure S2) [2]	IC50 [3] [µM]	BacA RA (%) [3] [%]	MIC [2] [µg/mL]	MIC ([2]; 125, 250 and 500 µM tested) [µM]	growth inhibition [2]	further results
O=C(O)c1csc(S(=O)(=O)Nc2ccc(SCc3cccnc3)cc2)c1 [Compound 1, 5-{p-[(3-pyridyl)methylthio]phenylaminosulfonyl}-3-thenoic acid]	no growth inhibition	No	without any antibacterial activity whatever the strain						MIC ([2]; Escherichia coli, 125, 250 and 500 µM tested): > 500 µM; MIC ([2]; Escherichia coli, class symbol ND): > 500 µM
Cc1ccc(NS(=O)(=O)c2cc(C(=O)O)cs2)cc1C [Compound 2]	no effect	No	strong specificity towards BacA	132 ± 22	66± 17	155	500	total growth inhibition	nature of the inhibition (compound versus substrate competition kinetics) ([3]; 25 to 300 µM substrate, 200 µM compound): non-competitive inhibitors
O=C(O)c1csc(S(=O)(=O)Nc2ccc(N3CCCC3)c(F)c2)c1 [Compound 4]	moderate inhibition	Yes	antibacterial activity on both strains			92	250	total growth inhibition	antibacterial activity per se (inhibition zone around compound-loaded disc) ([4]; 50 µg compound disc): no inhibition zone; inhibition zone of bacitracin in proximity of the compound ([4]; 130 µg bacitracin disc, 50 µg compound disc at 10 mm): 10 mm; growth inhibition ([1]; 250 µM compound): no effect; inhibition of PgpB [5]: not inhibited
O=C(O)c1csc(S(=O)(=O)Nc2ccc3[nH]c(=O)sc3c2)c1 [Compound 5]	did not lead to any growth inhibition; also recorded: no growth inhibition	No	without any antibacterial activity whatever the strain	338 ± 35	76 ± 13		> 500	no growth inhibition	growth inhibition [6]: no growth inhibition; growth inhibition upon bacA overexpression [7]: did not display any antibacterial activity; growth inhibition [8]: did not display any antibacterial activity; growth inhibition [9]: No growth inhibition; growth inhibition (BacA-independent activity) [10]: did not display any antibacterial activity; MIC ([2]; class symbol ND): ND (no growth inhibition detected up to 500 µM compound)
O=C(O)c1csc(S(=O)(=O)Nc2ccc3ccccc3c2)c1 [Compound 6]	moderate inhibition	Yes	antibacterial activity on both strains	151 ± 13	70 ± 18	83	250	total growth inhibition	growth inhibition ([1]; 250 µM compound): no effect
CC(C)Oc1ccc(NS(=O)(=O)c2cc(C(=O)O)cs2)cc1 [Compound 7]	no effect	No	strong specificity towards BacA	366 ± 73	80 ±10	170	500	total growth inhibition	
bacitracin [reference compound]									inhibition zone of bacitracin ([4]; 130 µg bacitracin disc alone): 7.5 mm
